# Patent publication US9884821B2, “N1-cyclic amine-N5-substituted biguanide derivatives, methods of preparing the same and pharmaceutical composition comprising the same” (IMMUNOMET THERAPEUTICS INC., priority 2013, dated 2018)
# Values joined by “and” are separate entries in the source; they are usually repeats but may differ in a detail not shown here. Equal entries are not always repeated. Structures can show the parent of a compound that is named as a salt.
# Legend:
# AMPK = AMPK activation effect (AMPK [pT172] ELISA) in MCF7 cells; format: cell-based, human; conditions: 24 hours; for AMPK activation effect (%) 10 μM / AMPK activation effect (%) 50 μM / AMPK activation effect (%) 5 μM: AMPKα Thr172 phosphorylation relative to untreated cells; for AC150: concentration at which AMPK activation reached 150%
# Procedure: ELISA kit (Invitrogen, Catalog No. KH00651).
# MCF7 cells were cultured in a DMEM medium supplemented with 10% fatal bovine serum (commercially available from Gibco Life Technologies (US)). Thereafter, the cultured MCF7 cells were put into a 6-well plate with approximately 5×10^5 cells per well, and cultured in an incubator supplied with 5% CO2. Culture media were treated with the derivatives synthesized in the Examples at concentrations of 5, 10 and 50 uM, and then cultured for 24 hours. […] Subsequently, the cells were lysed according to a method presented in the operation manual of the AMPK [pT172] ELISA kit, and 20 μg of a cell lysate was then yielded through protein assay. Thereafter, the AMPK activation effect was obtained by determining a degree of phosphorylation of a 172nd threonine residue (Thr172) of the AMPKα from the cell lysate according to the method presented in the operation manual of the AMPK [pT172] ELISA kit.
# HCT116 cells = assay: Effect of inhibiting cancer cell proliferation (MTT) in HCT116 cells; format: cell-based, human; conditions: for GI50 / inhibition at 100 µM / inhibition at 25 µM: Homo sapiens, HCT-116, 48 h; for inhibition at 100 µM: read-out: Cell growth inhibition (%) at 100 μM; for inhibition at 25 µM: read-out: Cell growth inhibition (%) at 25 μM
# Source text: HCT116 cells derived from human colorectal cancer were used, and an effect of inhibiting cancer cell proliferation of the biguanide derivative was confirmed by measuring a concentration value (cell growth inhibition concentration, GIC50) at which cell growth was inhibited by 50% using a 3-(4,5-dimethylthiazol-2-yl)-2,5-diphenyltetrazolium bromide (MTT) reagent.
# First, HCT116 cells (purchased from the KCLB) were put on a 96-well plate and cultured in a DMEM medium supplemented with 10% fatal bovine serum (commercially available from Gibco Life Technologies (US)) for 16 hours so that approximately 5,000 cells were counted in each well. Subsequently, to obtain the GIC50 value of each compound, the culture media were treated with 100 μM, 25 μM, 6.25 μM, 1.56 μM or 0.39 μM of the compound, and then cultured for 48 hours. In order to determine whether the cells survived after treatment with the compounds, MTT (commercially available from AMRESCO (US)) was added to the culture media which were then cultured for another 3 hours. Formed formazane crystals were dissolved using dimethyl sulfoxide (DMSO) and the absorbance of the resulting solution was measured at 560 nm. After the 48-hour culture, a ratio of a living cell count on a well plate treated with the compounds synthesized in the Examples to a cell count cultured on a well plate not treated with the compound was indicated as cell viability (%) according to the concentration of each treated compound. The cell viability (%) was used to plot a cell viability curve graph and calculate a concentration (GIC50) value of the compound at which the growth was inhibited by 50%, thereby confirming the inhibition effect of cancer cell proliferation.
SMILES,GI50 (HCT116 cells) [µM],AMPK activation effect (%) 10 μM (AMPK) [%],AMPK activation effect (%) 50 μM (AMPK),AC150 (AMPK) [µM],inhibition at 100 µM (HCT116 cells; 100 μM) [%],"Cell growth inhibition (%) at 100 μM (HCT116 cells; 100 μM, 48 hours)",AMPK activation effect (%) 5 μM (AMPK) [%],inhibition at 25 µM (HCT116 cells) [%]
"CC1CCCC(C)N1C(=N)NC(=N)Nc1cccc(C(F)(F)F)c1.Cl (centres unmarked) [Example 92, N1-(2,6-dimethyl)piperidine-N5-(3-trifluoromethyl)phenyl biguanide hydrochloride]",7.5,417,–,0.8,–,–,324,100
"CC1CCCN(C(=N)NC(=N)Nc2ccc(OC(F)(F)F)cc2)C1.Cl (centres unmarked) [Example 82, N1-(3-methyl)piperidine-N5-(4-trifluoromethoxy)phenyl biguanide hydrochloride]",7,474,–,0.5,–,–,401,100
"N=C(NC(=N)N1CC=CCC1)Nc1ccc(Br)cc1 [Example 36, N1-1,2,3,6-tetrahydropyridine-N5-(4-bromo)phenyl biguanide hydrochloride]",11.2,568,–,0.87,99,–,–,–
"CC1CCCN(C(=N)NC(=N)Nc2ccc(C(F)(F)F)c(F)c2)C1.Cl (centres unmarked) [Example 70, N1-(3-methyl)piperidine-N5-(3-fluoro, 4-trifluoromethyl)phenyl biguanide hydrochloride]",3.9,602,–,0.9,–,–,365,100
"CC1CCCC(C)N1C(=N)NC(=N)Nc1ccc(OC(F)(F)F)c(F)c1.Cl (centres unmarked) [Example 95, N1-(2,6-dimethyl)piperidine-N5-(3-fluoro, 4-trifluoromethoxy)phenyl biguanide]",2.9,326,–,3.1,–,–,130,101
"CC1=CCN(C(=N)NC(=N)Nc2ccc(Br)cc2)C1.Cl [Example 21, N1-(3-methyl)-1,2-dihydropyrrole-N5-(4-bromo)phenyl biguanide hydrochloride]",10.4,156,–,11.9,99.4,–,–,–
"Cl.N=C(NCc1ccc(C(F)(F)F)cc1)NC(=N)N1CC=CC1 [Example 13, N1-1,2-dihydropyrrole-N5-(4-trifluoromethyl)benzyl biguanide hydrochloride]",77.1,135,462%,9.0,57.8,–,–,–
"CC1CCCN(C(=N)NC(=N)NCc2ccc(OC(F)(F)F)cc2)C1.Cl (centres unmarked) [Example 84, N1-(3-methyl)piperidine-N5-(4-trifluoromethoxy)benzyl biguanide hydrochloride]",10.4,555,–,1.1,–,–,317,97
"Cl.N=C(NCc1ccc(OC(F)(F)F)cc1)NC(=N)N1CC=CCC1 [Example 54, N1-1,2,3,6-tetrahydropyridine-N5-(4-trifluoromethoxy)benzyl biguanide hydrochloride]",14.6,545,650%,0.87,98.1,–,–,–
"Cl.N=C(NC(=N)N1CC=CC1)Nc1ccc(F)cc1 [Example 7, N1-1,2-dihydropyrrole-N5-(4-fluoro)phenyl biguanide hydrochloride]",> 100,94,109%,>50,19.8,–,–,–
"Cl.N=C(NC(=N)N1CC=CC1)Nc1cccc(OC(F)(F)F)c1 [Example 52, N1-1,2-dihydropyrrole-N5-(3-trifluoromethoxy)phenyl biguanide hydrochloride]",15.4,352,–,2.7,100,–,–,–
"CC1CCCCN1C(=N)NC(=N)Nc1ccc(Cl)cc1.Cl (centres unmarked) [Example 77, N1-(2-methyl)piperidine-N5-(4-chloro)phenyl biguanide hydrochloride]",11.3,212,–,4.5,–,–,154,100
"CC1CCCN(C(=N)NC(=N)NCc2ccc(C(F)(F)F)cc2)C1.Cl (centres unmarked) [Example 86, N1-(3-methyl)piperidine-N5-(4-trifluoromethyl)benzyl biguanide hydrochloride]",27.6,330,–,2.3,–,–,147,49

# Further molecules by falling GI50 (HCT116 cells), results first:
GI50 (HCT116 cells) [µM],SMILES,AMPK activation effect (%) 10 μM (AMPK) [%],AMPK activation effect (%) 50 μM (AMPK),AC150 (AMPK) [µM],inhibition at 100 µM (HCT116 cells; 100 μM) [%],"Cell growth inhibition (%) at 100 μM (HCT116 cells; 100 μM, 48 hours)",AMPK activation effect (%) 5 μM (AMPK) [%],inhibition at 25 µM (HCT116 cells) [%]
2170,"CN(C)C(=N)N=C(N)N [Metformin, reference compound]",–,130% and 130 (at 50 μM) %,–,6.5,6.5 (at 100 μM ) %,–,–
102,"Cc1cccc(NC(=N)NC(=N)N2CC=CC2)c1.Cl [Example 51, N1-1,2-dihydropyrrole-N5-(3-methyl)phenyl biguanide hydrochloride]",241,409%,3.1,48.7,–,–,–
88.2,"COc1cccc(NC(=N)NC(=N)N2CC=CCC2)c1.Cl [Example 41, N1-1,2,3,6-tetrahydropyridine-N5-(3-methoxyl)phenyl biguanide hydrochloride]",125,201%,22.4,55.9,–,–,–
18,"Cl.N=C(NC(=N)N1CC=CC1)Nc1ccc(C(F)(F)F)cc1 [Example 5, N1-1,2-dihydropyrrole-N5-(4-trifluoromethyl)phenyl biguanide hydrochloride]",235,223%,2.8,99.7,–,–,–
12.9,"Cl.N=C(NC(=N)N1CC=CC1)Nc1cccc(C(F)(F)F)c1 [Example 6, N1-1,2-dihydropyrrole-N5-(3-trifluoromethyl)phenyl biguanide hydrochloride]",124,136%,>50,99.6,–,–,–
9.4,"CC1CCCCN1C(=N)NC(=N)Nc1cccc(C(F)(F)F)c1.Cl (centres unmarked) [Example 79, N1-(2-methyl)piperidine-N5-(3-trifluoromethyl)phenyl biguanide hydrochloride]",515,–,1.9,–,–,177,98.9
9.1,"CC1=CCN(C(=N)NC(=N)Nc2cccc(C(F)(F)F)c2)C1.Cl [Example 19, N1-(3-methyl)-1,2-dihydropyrrole-N5-(3-trifluoromethyl)phenyl biguanide hydrochloride]",306,–,1.5,99.6,–,–,–
7.9,"Cl.N=C(NCc1ccc(Cl)c(C(F)(F)F)c1)NC(=N)N1CC=CCC1 [Example 58, N1-1,2,3,6-tetrahydropyridine-N5-(4-chloro, 3-trifluoromethyl)benzyl biguanide hydrochloride]",500,–,1.8,98.4,–,–,–
7,"CC1CCCCN1C(=N)NC(=N)Nc1ccc(F)c(C(F)(F)F)c1.Cl (centres unmarked) [Example 78, N1-(2-methyl)piperidine-N5-(4-fluoro, 3-trifluoromethyl)phenyl biguanide hydrochloride]",565,–,0.5,–,–,425,100
2.6,"CC1=CCN(C(=N)NC(=N)Nc2ccc(Cl)c(C(F)(F)F)c2)C1.Cl [Example 18, N1-(3-methyl)-1,2-dihydropyrrole-N5-(4-chloro, 3-trifluoromethyl)phenyl biguanide hydrochloride]",–,–,0.81,99.5,–,–,–
